Measured values from patent publication US11358944B2, “Anxiolytic deuterated compound and medical use thereof” (BEIJING JUNKE HUAYUAN MED TECH CO., LTD., priority 2017, dated 2022).

Key:
Wistar rats = assay: elevated plus-maze test on rats (anxiolytic effect); format: in vivo, rat; conditions: 30 min after administration, within 5 minutes
Method: The anxiolytic effect of the compounds was evaluated using an elevated plus-maze test on rats.
The elevated plus-maze consists of two closed arms and two open arms cross each other with length, width and height respectively of 50 cm, 10 cm and 40 cm.
The central connecting area is 10 cm (length)×10 cm (width), and the maze is 50 cm above the ground, placed in the darker side of the fluorescent lamp and 1 meter away from the lamp. Wistar rats were randomly divided into groups with 5 per group, and the rats were fasted but not deprived of water for 12 hours; The test compound was formulated with 0.5% sodium carboxymethylcellulose into a suspension of certain concentration for intragastric administration. Thirty minutes after administration, the rats were placed in the central connecting area of the maze with the heads facing the direction of the open arms. Then the dwell time of the animals in the open arms within 5 minutes was recorded.

[1] = subacute toxicity, 7-day intragastric administration: blood biochemical and hematological indicators; format: in vivo, rat; conditions: 60 mg/kg intragastric once a day for 7 days; for plasma ALT compared with control group (Solvent group) / plasma AST compared with control group (Solvent group): SD rats, result in words; for ALT / AST: male Sprague-Dawley rats
Method: (§1) Male Sprague-Dawley rats (220-240 g), were randomly divided into groups with 5 per group; The test compound was formulated with 0.5% sodium carboxymethylcellulose into a preparation of a concentration of 60 mg/kg for intragastric administration once a day and continuously for 7 days. After the last administration, the SD rats were fasted but not deprived of water for 12 hours, and anesthetized. Their blood samples were obtained from the abdominal aortas and made to serum samples for determination of blood biochemical indicators and immunological indicators; EDTA Anticoagulated blood was prepared for general blood routine determination. Referring to the method of the literature (En Li, et al. Effect of buagafuran on liver microsomal cytochrome P450 in rats. J Asian Natural Products Research. 2010; 12: 371-381.), liver microsome was prepared from the liver taken, and the activity of CYP isoenzyme was determined using a probe substrate. The relative enzymatic activity of the test compound was calculated by taking the activity of the solvent group as 1.

CYP1A1 = assay: induction of liver metabolic enzyme, liver microsome probe substrate activity after 7-day administration; format: in vivo, rat; conditions: 60 mg/kg intragastric once a day for 7 days; for Relative enzyme activity CYP1A1: rat liver microsome, solvent group = 1; for activity of metabolic enzyme CYP1A1 in the liver compared with solvent group: result in words
Method: as §1

CYP2E1 [2] = assay: as above; format: in vivo, rat; conditions: 60 mg/kg intragastric once a day for 7 days; for Relative enzyme activity CYP2E1: rat liver microsome, solvent group = 1; for activity of metabolic enzyme CYP2E1 in the liver compared with solvent group: result in words
Method: as §1

[3] = background statement; cited from earlier work
[4] = background statement; cited from earlier work; remark: listed apart in the source
CYP1A2 = conditions: literature, rats; cited from earlier work
CYP2E1 [5] = conditions: literature, rats; cited from earlier work

Structure (SMILES)	dwell time in the open arms (Wistar rats; 1 mg/kg intragastric) [s]	dwell time in the open arms (Wistar rats; 2 mg/kg intragastric) [s]	dwell time in the open arms (Wistar rats; 4 mg/kg intragastric) [s]	plasma ALT compared with control group (Solvent group) [1]	plasma AST compared with control group (Solvent group) [1]	ALT [1] [U/L]	AST [1] [U/L]	Relative enzyme activity CYP1A1 (CYP1A1)	activity of metabolic enzyme CYP1A1 in the liver compared with solvent group (CYP1A1)	Relative enzyme activity CYP2E1 (CYP2E1 [2])	activity of metabolic enzyme CYP2E1 in the liver compared with solvent group (CYP2E1 [2])	anxiolytic activity [3]	oral bioavailability [4]	induction effect on liver cytochrome P450 metabolic enzyme CYP1A2 (CYP1A2)	induction effect on liver cytochrome P450 metabolic enzyme CYP2E1 (CYP2E1 [5])
CCCCC1=CCC[C@@]2(C)CC[C@@H]3C[C@]12OC3(C)C [BAF, 4-butyl-α-agarofuran, reference compound]	26.7 ± 27.0	45.2 ± 39.7	69.0 ± 49.0	significantly increased	significantly increased	189.0	258.7	3.8	significantly increased	1.7	significantly increased	significant anxiolytic activity	low	significant induction effect	significant induction effect
[2H]C1([2H])C=C(CCCC)[C@@]23C[C@@H](CC[C@]2(C)C1)C(C)(C)O3 [I-1, d2-BAF]	48.6 ± 21.7	68.4 ± 30.8	47.5 ± 23.6	no significant differences	no significant differences	116.1	163.9	1.7	not significantly different	1.2	not significantly different	–	–	–	–
[2H]C1=C(CCCC)[C@@]23C[C@@H](CC[C@]2(C)CC1([2H])[2H])C(C)(C)O3 [I-2, d3-BAF]	45.6 ± 19.1	69.7 ± 29.8	39.0 ± 25.7	no significant differences	no significant differences	74.0	115.4	1.4	not significantly different	1.0	not significantly different	–	–	–	–
[2H]C1([2H])C=C(CCCC)[C@]23OC(C)(C)[C@H](CC[C@]2(C)C1)C3([2H])[2H] [I-3, d4-BAF]	52.5 ± 26.0	67.2 ± 22.0	42.7 ± 25.1	–	–	–	–	–	–	–	–	–	–	–	–
[2H]C([2H])([2H])C([2H])([2H])C([2H])([2H])C([2H])([2H])C1=CCC[C@@]2(C)CC[C@@H]3C[C@]12OC3(C)C [I-5, d9-BAF]	72.0 ± 15.8	71.2 ± 15.3	76.5 ± 16.0	no significant differences	no significant differences	56.6	137.2	1.3	not significantly different	1.2	not significantly different	–	–	–	–
[2H]C1=C(C([2H])([2H])C([2H])([2H])C([2H])([2H])C([2H])([2H])[2H])[C@@]23C[C@@H](CC[C@]2(C)CC1)C(C)(C)O3 [I-6, d10-BAF]	73.3 ± 17.6	71.4 ± 19.1	66.3 ± 19.6	–	–	–	–	–	–	–	–	–	–	–	–
[2H]C1([2H])C=C(C([2H])([2H])C([2H])([2H])C([2H])([2H])C([2H])([2H])[2H])[C@@]23C[C@@H](CC[C@]2(C)C1)C(C)(C)O3 [I-7, d11-BAF]	77.5 ± 23.3	72.6 ± 18.6	73.8 ± 11.0	no significant differences	no significant differences	48.7	107.7	1.1	not significantly different	0.9	not significantly different	–	–	–	–
[2H]C1=C(C([2H])([2H])C([2H])([2H])C([2H])([2H])C([2H])([2H])[2H])[C@@]23C[C@@H](CC[C@]2(C)CC1([2H])[2H])C(C)(C)O3 [I-8, d12-BAF]	70.7 ± 23.2	76.9 ± 14.4	72.3 ± 17.8	–	–	–	–	–	–	–	–	–	–	–	–
